Measured values published in the NIST ThermoML archive (doi:10.1016/j.jct.2005.04.015).
± gives the expanded uncertainty stated by the source.

Assay: excess molar enthalpy (molar enthalpy of mixing); xn = mol fraction of the nth substance listed
Conditions: Liquid, Flow calorimetry

CCOC=O [ethyl methanoate] + CCCCO
excess molar enthalpy [kcal/mol]
Conditions	298.15 K	308.15 K
5000 kPa, x1 = 0.0499	0.0919 ± 0.00201	–
5000 kPa, x1 = 0.1005	0.17 ± 0.00359	–
5000 kPa, x1 = 0.1488	0.232 ± 0.00502	–
5000 kPa, x1 = 0.2008	0.285 ± 0.00598	–
5000 kPa, x1 = 0.2505	0.325 ± 0.00693	–
5000 kPa, x1 = 0.3009	0.355 ± 0.00765	–
5000 kPa, x1 = 0.3488	0.377 ± 0.00813	–
5000 kPa, x1 = 0.4006	0.393 ± 0.00837	–
5000 kPa, x1 = 0.4498	0.401 ± 0.0086	–
5000 kPa, x1 = 0.4997	0.399 ± 0.0086	–
5000 kPa, x1 = 0.6015	0.376 ± 0.00813	–
5000 kPa, x1 = 0.65	0.356 ± 0.00765	–
5000 kPa, x1 = 0.6991	0.33 ± 0.00693	–
5000 kPa, x1 = 0.7489	0.294 ± 0.00621	–
5000 kPa, x1 = 0.7993	0.252 ± 0.0055	–
5000 kPa, x1 = 0.8503	0.202 ± 0.0043	–
5000 kPa, x1 = 0.8983	0.148 ± 0.00311	–
5000 kPa, x1 = 0.9507	0.073 ± 0.0016	–
10000 kPa, x1 = 0.0497	0.0909 ± 0.00198	–
10000 kPa, x1 = 0.1002	0.169 ± 0.00359	–
10000 kPa, x1 = 0.1501	–	0.259 ± 0.0055
10000 kPa, x1 = 0.1514	0.233 ± 0.00502	–
10000 kPa, x1 = 0.1999	–	0.314 ± 0.00669
10000 kPa, x1 = 0.2003	0.281 ± 0.00598	–
10000 kPa, x1 = 0.2499	0.319 ± 0.00693	–
10000 kPa, x1 = 0.2504	–	0.359 ± 0.00765
10000 kPa, x1 = 0.2989	–	0.39 ± 0.00837
10000 kPa, x1 = 0.3002	0.348 ± 0.00741	–
10000 kPa, x1 = 0.3508	–	0.416 ± 0.00884
10000 kPa, x1 = 0.3513	0.372 ± 0.00789	–
10000 kPa, x1 = 0.3998	0.385 ± 0.00837	–
10000 kPa, x1 = 0.4007	–	0.431 ± 0.00908
10000 kPa, x1 = 0.449	0.393 ± 0.00837	–
10000 kPa, x1 = 0.4514	–	0.438 ± 0.00932
10000 kPa, x1 = 0.4989	0.393 ± 0.00837	–
10000 kPa, x1 = 0.4998	–	0.437 ± 0.00932
10000 kPa, x1 = 0.549	–	0.429 ± 0.00908
10000 kPa, x1 = 0.5494	0.385 ± 0.00813	–
10000 kPa, x1 = 0.5988	–	0.414 ± 0.00884
10000 kPa, x1 = 0.6007	0.371 ± 0.00789	–
10000 kPa, x1 = 0.6492	0.35 ± 0.00741	0.391 ± 0.00837
10000 kPa, x1 = 0.6984	0.324 ± 0.00693	–
10000 kPa, x1 = 0.7004	–	0.361 ± 0.00765
10000 kPa, x1 = 0.7482	0.288 ± 0.00621	–
10000 kPa, x1 = 0.7493	–	0.326 ± 0.00693
10000 kPa, x1 = 0.7987	0.244 ± 0.00526	0.281 ± 0.00598
10000 kPa, x1 = 0.8488	–	0.228 ± 0.00502
10000 kPa, x1 = 0.8499	0.193 ± 0.00406	–
10000 kPa, x1 = 0.8996	–	0.165 ± 0.00359
10000 kPa, x1 = 0.9018	0.134 ± 0.00287	–
10000 kPa, x1 = 0.9506	0.0751 ± 0.00165	–

CCOC=O [ethyl methanoate] + CC(C)O
Conditions	excess molar enthalpy [kcal/mol]
298.15 K, 5000 kPa, x1 = 0.0498	0.0806 ± 0.00177
298.15 K, 5000 kPa, x1 = 0.0993	0.158 ± 0.00335
298.15 K, 5000 kPa, x1 = 0.1485	0.221 ± 0.00478
298.15 K, 5000 kPa, x1 = 0.2008	0.276 ± 0.00598
298.15 K, 5000 kPa, x1 = 0.2493	0.317 ± 0.00669
298.15 K, 5000 kPa, x1 = 0.3009	0.35 ± 0.00741
298.15 K, 5000 kPa, x1 = 0.3488	0.373 ± 0.00789
298.15 K, 5000 kPa, x1 = 0.3997	0.391 ± 0.00837
298.15 K, 5000 kPa, x1 = 0.4503	0.4 ± 0.0086
298.15 K, 5000 kPa, x1 = 0.5005	0.403 ± 0.0086
298.15 K, 5000 kPa, x1 = 0.5504	0.398 ± 0.0086
298.15 K, 5000 kPa, x1 = 0.5999	0.389 ± 0.00837
298.15 K, 5000 kPa, x1 = 0.6492	0.372 ± 0.00789
298.15 K, 5000 kPa, x1 = 0.7013	0.344 ± 0.00741
298.15 K, 5000 kPa, x1 = 0.7498	0.311 ± 0.00669
298.15 K, 5000 kPa, x1 = 0.8012	0.267 ± 0.00574
298.15 K, 5000 kPa, x1 = 0.8997	0.156 ± 0.00335
298.15 K, 5000 kPa, x1 = 0.95	0.0857 ± 0.00189
298.15 K, 10000 kPa, x1 = 0.0497	0.0741 ± 0.00163
298.15 K, 10000 kPa, x1 = 0.099	0.152 ± 0.00335
298.15 K, 10000 kPa, x1 = 0.1516	0.218 ± 0.00478
298.15 K, 10000 kPa, x1 = 0.2003	0.271 ± 0.00574
298.15 K, 10000 kPa, x1 = 0.2487	0.311 ± 0.00669
298.15 K, 10000 kPa, x1 = 0.3002	0.345 ± 0.00741
298.15 K, 10000 kPa, x1 = 0.3514	0.368 ± 0.00789
298.15 K, 10000 kPa, x1 = 0.3989	0.383 ± 0.00813
298.15 K, 10000 kPa, x1 = 0.4495	0.393 ± 0.00837
298.15 K, 10000 kPa, x1 = 0.4997	0.396 ± 0.00837
298.15 K, 10000 kPa, x1 = 0.5496	0.393 ± 0.00837
298.15 K, 10000 kPa, x1 = 0.5991	0.384 ± 0.00813
298.15 K, 10000 kPa, x1 = 0.6484	0.368 ± 0.00789
298.15 K, 10000 kPa, x1 = 0.7006	0.34 ± 0.00717
298.15 K, 10000 kPa, x1 = 0.7492	0.31 ± 0.00669
298.15 K, 10000 kPa, x1 = 0.8006	0.265 ± 0.00574
298.15 K, 10000 kPa, x1 = 0.8994	0.157 ± 0.00335
298.15 K, 10000 kPa, x1 = 0.9499	0.0864 ± 0.00189
308.15 K, 10000 kPa, x1 = 0.0487	0.0511 ± 0.00115
308.15 K, 10000 kPa, x1 = 0.1	0.139 ± 0.00311
308.15 K, 10000 kPa, x1 = 0.1511	0.211 ± 0.00454
308.15 K, 10000 kPa, x1 = 0.1988	0.267 ± 0.00574
308.15 K, 10000 kPa, x1 = 0.2492	0.313 ± 0.00669
308.15 K, 10000 kPa, x1 = 0.2993	0.351 ± 0.00741
308.15 K, 10000 kPa, x1 = 0.349	0.378 ± 0.00813
308.15 K, 10000 kPa, x1 = 0.4013	0.398 ± 0.0086
308.15 K, 10000 kPa, x1 = 0.4504	0.409 ± 0.00884
308.15 K, 10000 kPa, x1 = 0.4992	0.413 ± 0.00884
308.15 K, 10000 kPa, x1 = 0.5505	0.409 ± 0.00884
308.15 K, 10000 kPa, x1 = 0.5987	0.399 ± 0.0086
308.15 K, 10000 kPa, x1 = 0.6996	0.353 ± 0.00765
308.15 K, 10000 kPa, x1 = 0.7496	0.319 ± 0.00693
308.15 K, 10000 kPa, x1 = 0.7993	0.278 ± 0.00598
308.15 K, 10000 kPa, x1 = 0.8513	0.226 ± 0.00478
308.15 K, 10000 kPa, x1 = 0.9003	0.163 ± 0.00359
308.15 K, 10000 kPa, x1 = 0.949	0.0911 ± 0.00198
